For one compound, seizure reductions results are on record in patent publication US20250339450A1, “TREATMENT OF SYNGAP1 ENCEPHALOPATHY” (Harmony Biosciences Management, Inc., priority 2019, published 2025).

The test system of the assay is patients with SYNGAP1. Kind of assay: Four patients with SYNGAP1 in Study ZYN2-CL-025 (BELIEVE). Type of assay: in vivo, human. The note with it: SYNGAP1 encephalopathy patients; across the 26-week treatment period; transdermal. An excerpt: The trial summarized in the examples—a Phase 2 open label clinical trial—assessed the safety and efficacy of transdermal administration of CBD in a heterogeneous group of SYNGAP1 encephalopathy and other rare developmental and epileptic encephalopathies (DEEs), including but not limited to Dravet Syndrome (DS) and Lennox-Gastaut Syndrome (LGS). Some of the most common and debilitating SYNGAP1 encephalopathy seizure types are focal impaired-awareness and convulsive seizures. Patients with SYNGAP1 encephalopathy who experienced these seizure types, such as SYNGAP1 seizures, experienced seizure reductions of up to 73% across the 26-week treatment period. Qualitative assessments by caregivers in the study indicate improved behavioral problems including improved mood, engagement with others, learning ability, alertness, school attendance, as well as cognitive symptoms.
This was a sequential, multi-stage, open-label, multi-national, multiple-center, multiple-dose study to assess the long-term safety and tolerability of ZYN002 (transdermal CBD gel) in child and adolescent epilepsy patients from 3 to 18 years of age having seizures associated with developmental and epileptic encephalopathies (DEE) according to the International League Against Epilepsy (ILEA) classification (Scheffer et al. 2017). […]

On to `C=C(C)C1CCC(C)=CC1c1c(O)cc(CCCCC)cc1O` (stereo not shown) [CBD, 2-[3-methyl-6-(1-methylethenyl)-2-cyclohexen-1-yl]-5-pentyl-1,3-benzenediol], for which the seizure reductions result is “up to 73%”.
